Results from patent publication US11957759B1, “Rapidly accelerated fibrosarcoma (RAF) degrading compounds and associated methods of use” (Arvinas Operations, Inc., priority 2022, dated 2024).

Key:
[1] = target: T1, B-RAF V600E (Homo sapiens, UniProt P15056, V600E); assay: Target protein degradation, assay C: T-Rex 293 cells, HA-BRAF_V600E, 384 well format; assay type: cell-based; conditions: T-Rex 293 HA-BRAF_V600E cells, 24 hours, Examples 83-269; for DC50: Assay C; for Dmax: T-REx-293, Assay C
T1 construct: expressed in transfected cells; host or cells: T-Rex 293 cells (Invitrogen #R71007)
Procedure, shortened: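 T-Rex 293 cells stably expressing doxycycline-induced (1 ng/mL) HA-BRAF V600E were treated 24 h at 37 °C with compound (300 nM–5 pM, 11 points, 0.5% DMSO). HA immunofluorescence was quantified by high-content imaging to give DC50 and Dmax (% of control); nuclei counts versus DMSO gauged toxicity.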

[2] = target: T2, B-RAF G466V (Homo sapiens, UniProt P15056, G466V); assay: Target protein degradation, assay D: T-Rex 293 cells, HA-BRAF_G466V, 384 well format; assay type: cell-based; conditions: T-Rex 293 HA-BRAF_G466V cells, 24 hours, Examples 83-269; for Dmax: T-REx-293, Assay D
T2 construct: expressed in transfected cells; host or cells: T-Rex 293 cells (Invitrogen #R71007)
Procedure, shortened: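 T-Rex 293 cells stably expressing doxycycline-induced (1 ng/mL) HA-BRAF G466V treated 24 h at 37 °C with PROTACs, 11-point 1:3 dilution, 300 nM to 5 pM final, 0.5% DMSO. Fixed cells immunostained for HA and imaged by high-content microscopy; DC50 and Dmax (% of control) derived, toxicity from nuclei counts versus DMSO.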

T2 sequence (P15056 whole entry G466V): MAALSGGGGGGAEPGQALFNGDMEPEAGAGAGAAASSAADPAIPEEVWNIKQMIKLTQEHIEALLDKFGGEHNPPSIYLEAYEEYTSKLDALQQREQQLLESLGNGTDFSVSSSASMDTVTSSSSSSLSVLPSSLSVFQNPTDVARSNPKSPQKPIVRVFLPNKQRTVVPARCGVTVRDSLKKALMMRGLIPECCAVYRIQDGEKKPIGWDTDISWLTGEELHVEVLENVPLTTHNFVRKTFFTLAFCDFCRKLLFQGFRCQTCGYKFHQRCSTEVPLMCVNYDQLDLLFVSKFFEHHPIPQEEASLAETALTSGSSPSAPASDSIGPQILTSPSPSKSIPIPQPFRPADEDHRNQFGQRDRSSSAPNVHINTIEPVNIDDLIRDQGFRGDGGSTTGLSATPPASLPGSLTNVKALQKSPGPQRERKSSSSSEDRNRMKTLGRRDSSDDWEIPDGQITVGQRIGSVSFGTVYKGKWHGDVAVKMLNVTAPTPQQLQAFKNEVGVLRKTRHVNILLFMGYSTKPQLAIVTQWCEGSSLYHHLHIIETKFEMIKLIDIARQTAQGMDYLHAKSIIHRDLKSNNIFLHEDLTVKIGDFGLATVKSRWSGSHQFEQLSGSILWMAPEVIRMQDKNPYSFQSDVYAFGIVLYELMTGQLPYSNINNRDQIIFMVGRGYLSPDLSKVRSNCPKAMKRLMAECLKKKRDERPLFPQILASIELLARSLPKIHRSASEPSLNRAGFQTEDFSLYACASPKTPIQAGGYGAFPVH
T1 sequence (P15056 whole entry V600E): as the sequence (P15056 whole entry G466V) above, with V466G, V600E counted along it

Structure (SMILES) | DC50 [1] [nM] | Dmax [1] [%] | DC50 ([2]; Assay D) [nM] | Dmax [2] [%] | B-RAF G466V DMax (%) ([2]; Assay D)
N#Cc1c(NS(=O)(=O)N2CC[C@@H](F)C2)ccc(F)c1Oc1ccc2ncn(-c3cnc(C4(N5CCN(CC6CN(c7ccc(NC8CCC(=O)NC8=O)cc7F)C6)CC5)CC4)nc3)c(=O)c2c1 (stereo partly drawn) [Example 108, (3R)-N-[2-cyano-3-({3-[2-(1-{4-[(1-{4-[(2,6-dioxopiperidin-3-yl)amino]-2-fluorophenyl}azetidin-3-yl)methyl]piperazin-1-yl}cyclopropyl)pyrimidin-5-yl]-4-oxo-3,4-dihydroquinazolin-6-yl}oxy)-4-fluorophenyl]-3-fluoropyrrolidine-1-sulfonamide] | 5 to 50 | 35 to 70 | 1 to 10 | ≤ 35 | 
N#Cc1c(NS(=O)(=O)N2CC[C@@H](F)C2)ccc(F)c1Oc1ccc2ncn(-c3cnc(C4(N5CCN(CC6CCN(c7ccc(NC8CCC(=O)NC8=O)cc7F)CC6)CC5)CC4)nc3)c(=O)c2c1 (stereo partly drawn) [Example 102, (3R)-N-[2-cyano-3-({3-[2-(1-{4-[(1-{4-[(2,6-dioxopiperidin-3-yl)amino]-2-fluorophenyl}piperidin-4-yl)methyl]piperazin-1-yl}cyclopropyl)pyrimidin-5-yl]-4-oxo-3,4-dihydroquinazolin-6-yl}oxy)-4-fluorophenyl]-3-fluoropyrrolidine-1-sulfonamide] | 50 to 500 | 35 to 70 | > 30 |  | 
COc1cc(N2CC(CN3CCN(c4ccc(-n5cnc6ccc(Oc7c(F)ccc(NS(=O)(=O)N8CC[C@@H](F)C8)c7C#N)cc6c5=O)cc4)CC3)C2)cc2c1C(=O)N([C@H]1CCC(=O)NC1=O)C2 [Example 236, (3R)-N-(2-cyano-3-{[3-(4-{4-[(1-{2-[(3S)-2,6-dioxopiperidin-3-yl]-7-methoxy-1-oxo-2,3-dihydro-1H-isoindol-5-yl}azetidin-3-yl)methyl]piperazin-1-yl}phenyl)-4-oxo-3,4-dihydroquinazolin-6-yl]oxy}-4-fluorophenyl)-3-fluoropyrrolidine-1-sulfonamide] | 50 to 500 | 35 to 70 | 10 to 30 | ≥ 70 | 
N#Cc1c(NS(=O)(=O)N2CC[C@@H](F)C2)ccc(F)c1Oc1ccc2ncn(-c3ccc(N4CCC(CN5CC6(CCC(c7ccc8c(c7)CN(C7CCC(=O)NC7=O)C8=O)CC6)C5)C4)cc3)c(=O)c2c1 (single isomer, unassigned) [Example 260, (3R)-N-(2-cyano-3-{[3-(4-{3-[(7-{2-[(3R*)-2,6-dioxopiperidin-3-yl]-1-oxo-2,3-dihydro-1H-isoindol-5-yl}-2-azaspiro[3.5]nonan-2-yl)methyl]pyrrolidin-1-yl}phenyl)-4-oxo-3,4-dihydroquinazolin-6-yl]oxy}-4-fluorophenyl)-3-fluoropyrrolidine-1-sulfonamide] | 50 to 500 | 35 to 70 | 1 to 10 | ≥ 70 | 
CN(CC1CCN(c2ccc(-n3cnc4ccc(Oc5c(F)ccc(NS(=O)(=O)N6CC[C@@H](F)C6)c5C#N)cc4c3=O)cn2)CC1)[C@H]1C[C@H](Oc2ccc3c(c2)C(=O)N([C@@H]2CCC(=O)NC2=O)C3=O)C1 [Example 166, (3R)-N-{2-cyano-4-fluoro-3-[(3-{6-[4-({methyl[(1r,3r)-3-{[2-(2,6-dioxopiperidin-3-yl)-1,3-dioxo-2,3-dihydro-1H-isoindol-5-yl]oxy}cyclobutyl]amino}methyl)piperidin-1-yl]pyridin-3-yl}-4-oxo-3,4-dihydroquinazolin-6-yl)oxy]phenyl}-3-fluoropyrrolidine-1-sulfonamide] | > 500 |  | 1 to 10 |  | C (C ≤ 35)
CN(c1ccc(-n2cnc3ccc(Oc4c(F)ccc(NS(=O)(=O)N5CC[C@@H](F)C5)c4C#N)cc3c2=O)cc1)C1CCC(N2CCN(c3ccc4c(c3)CN([C@H]3CCC(=O)NC3=O)C4=O)CC2)CC1 (stereo partly drawn) [Example 225, (3R)-N-(2-cyano-4-fluoro-3-{[3-(4-{methyl[(1s,4s)-4-(4-{2-[(3S)-2,6-dioxopiperidin-3-yl]-1-oxo-2,3-dihydro-1H-isoindol-5-yl}piperazin-1-yl)cyclohexyl]amino}phenyl)-4-oxo-3,4-dihydroquinazolin-6-yl]oxy}phenyl)-3-fluoropyrrolidine-1-sulfonamide] | > 500 |  | 10 to 30 | 35 to 70 | 
N#Cc1c(NS(=O)(=O)N2CC[C@@H](F)C2)ccc(F)c1Oc1ccc2ncn(-c3ccc(N4CCN(CC5CCN(c6ccc7c(c6)CN(C6CCC(=O)NC6=O)C7=O)CC5)CC4)cc3F)c(=O)c2c1 (stereo partly drawn) [Example 87, (3R)-N-{2-cyano-3-[(3-{4-[4-({1-[2-(2,6-dioxopiperidin-3-yl)-1-oxo-2,3-dihydro-1H-isoindol-5-yl]piperidin-4-yl}methyl)piperazin-1-yl]-2-fluorophenyl}-4-oxo-3,4-dihydroquinazolin-6-yl)oxy]-4-fluorophenyl}-3-fluoropyrrolidine-1-sulfonamide] | > 500 |  | > 30 |  | 
N#Cc1c(NS(=O)(=O)N2CC[C@@H](F)C2)ccc(F)c1Oc1ccc2ncn(-c3ccc(N4CC(CN5CCN(C6CCN(c7ccc8c(c7)CN(C7CCC(=O)NC7=O)C8=O)CC6)CC5)C4)cc3)c(=O)c2c1 (single isomer, unassigned) [Example 197, (3R)-N-[2-cyano-3-({3-[4-(3-{[4-(1-{2-[(3R*)-2,6-dioxopiperidin-3-yl]-1-oxo-2,3-dihydro-1H-isoindol-5-yl}piperidin-4-yl)piperazin-1-yl]methyl}azetidin-1-yl)phenyl]-4-oxo-3,4-dihydroquinazolin-6-yl}oxy)-4-fluorophenyl]-3-fluoropyrrolidine-1-sulfonamide] | 50 to 500 | ≤ 35 | 1 to 10 | 35 to 70 | 
N#Cc1c(NS(=O)(=O)N2CC[C@@H](F)C2)ccc(F)c1Oc1ccc2ncn(-c3ccc(N4CCC(CN5CCN(c6ccc7c(c6)CN([C@H]6CCC(=O)NC6=O)C7=O)CC5)C4)cc3)c(=O)c2c1 (stereo partly drawn) [Example 217, (3R)-N-(2-cyano-3-{[3-(4-{3-[(4-{2-[(3S)-2,6-dioxopiperidin-3-yl]-1-oxo-2,3-dihydro-1H-isoindol-5-yl}piperazin-1-yl)methyl]pyrrolidin-1-yl}phenyl)-4-oxo-3,4-dihydroquinazolin-6-yl]oxy}-4-fluorophenyl)-3-fluoropyrrolidine-1-sulfonamide] | 50 to 500 | 35 to 70 | 1 to 10 | ≤ 35 | 
N#Cc1c(NS(=O)(=O)N2CC[C@@H](F)C2)ccc(F)c1Oc1ccc2ncn(-c3ccc(N4CCC(CN5CCC(c6ccc7c(c6)CN([C@H]6CCC(=O)NC6=O)C7=O)CC5)C4)cc3)c(=O)c2c1 (stereo partly drawn) [Example 221, (3R)-N-(2-cyano-3-{[3-(4-{3-[(4-{2-[(3S)-2,6-dioxopiperidin-3-yl]-1-oxo-2,3-dihydro-1H-isoindol-5-yl}piperidin-1-yl)methyl]pyrrolidin-1-yl}phenyl)-4-oxo-3,4-dihydroquinazolin-6-yl]oxy}-4-fluorophenyl)-3-fluoropyrrolidine-1-sulfonamide] | 50 to 500 | 35 to 70 | 1 to 10 | 35 to 70 | 
N#Cc1c(NS(=O)(=O)N2CC[C@@H](F)C2)ccc(F)c1Oc1ccc2ncn(-c3ccc(N4CCC5(CCN(c6ccc7c(c6)C(=O)N(C6CCC(=O)NC6=O)C7=O)CC5)CC4)nc3)c(=O)c2c1 (stereo partly drawn) [Example 148, (3R)-N-(2-cyano-3-{[3-(6-{9-[2-(2,6-dioxopiperidin-3-yl)-1,3-dioxo-2,3-dihydro-1H-isoindol-5-yl]-3,9-diazaspiro[5.5]undecan-3-yl}pyridin-3-yl)-4-oxo-3,4-dihydroquinazolin-6-yl]oxy}-4-fluorophenyl)-3-fluoropyrrolidine-1-sulfonamide] | 50 to 500 | ≤ 35 | > 30 |  | 
CC(C)(C1CCN(c2ncc(-n3cnc4ccc(Oc5c(F)ccc(NS(=O)(=O)N6CC[C@@H](F)C6)c5C#N)cc4c3=O)cn2)CC1)N1CCN(c2ccc3c(c2)C(=O)N(C2CCC(=O)NC2=O)C3=O)CC1 (stereo partly drawn) [Example 152, (3R)-N-{2-cyano-3-[(3-{2-[4-(2-{4-[2-(2,6-dioxopiperidin-3-yl)-1,3-dioxo-2,3-dihydro-1H-isoindol-5-yl]piperazin-1-yl}propan-2-yl)piperidin-1-yl]pyrimidin-5-yl}-4-oxo-3,4-dihydroquinazolin-6-yl)oxy]-4-fluorophenyl}-3-fluoropyrrolidine-1-sulfonamide] | 50 to 500 | 35 to 70 | 1 to 10 | ≤ 35 | 
N#Cc1c(NS(=O)(=O)N2CC[C@@H](F)C2)ccc(F)c1Oc1ccc2ncn(-c3cnc(N4CCC(CC5CCCN5c5ccc6c(c5)C(=O)N(C5CCC(=O)NC5=O)C6=O)CC4)nc3)c(=O)c2c1 (stereo partly drawn) [Example 156, (3R)-N-{2-cyano-3-[(3-{2-[4-({1-[2-(2,6-dioxopiperidin-3-yl)-1,3-dioxo-2,3-dihydro-1H-isoindol-5-yl]pyrrolidin-2-yl}methyl)piperidin-1-yl]pyrimidin-5-yl}-4-oxo-3,4-dihydroquinazolin-6-yl)oxy]-4-fluorophenyl}-3-fluoropyrrolidine-1-sulfonamide] | 50 to 500 | 35 to 70 | > 30 |  | 
